According to patent US6355799B1, “Substituted benzene compounds, process for their preparation, and herbicidal and defoliant compositions containing them” (ISK Americas Incorporated, priority 1997, dated 2002):

Assays:
Format in all cases: in vivo
[1] = test system: green foxtail (Setaria viridis, SETVI); assay: Pre-emerge test, greenhouse herbicide activity screening; settings: pre-emerge, rated 14 days after application, 0 = no damage, 100 = complete death
In short: (§1)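 Compounds in acetone were track-sprayed at 187 l/ha, 15–1000 g ai/ha, onto sandy loam pots. Pre-emerge seeds were sown one day before spraying, with surface watering afterwards. Post-emerge plants were at the 2–3 leaf stage and sprayed with 0.25% v/v non-ionic surfactant. Injury was rated 0–100 at 14 days.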

[2] = test system: barnyardgrass (Echinochloa crus-galli, ECHCG); assay: as above; settings: pre-emerge, rated 14 days after application, 0 = no damage, 100 = complete death
In short: as §1

[3] = test system: velvetleaf (Abutilon theophrasti, ABUTH); assay: as above; settings: pre-emerge, rated 14 days after application, 0 = no damage, 100 = complete death
In short: as §1

[4] = test system: sicklepod (Cassia obtusifolia, CASOB); assay: as above; settings: pre-emerge, rated 14 days after application, 0 = no damage, 100 = complete death
In short: as §1

[5] = test system: large crabgrass (Digitaria sanguinalis, DIGSA); assay: as above; settings: pre-emerge, rated 14 days after application, 0 = no damage, 100 = complete death
In short: as §1

[6] = test system: johnsongrass (Sorghum halepense, SORHA); assay: as above; settings: pre-emerge, rated 14 days after application, 0 = no damage, 100 = complete death
In short: as §1

[7] = test system: ivyleaf morningglory (Ipomoea hederacea, IPOHE); assay: as above; settings: pre-emerge, rated 14 days after application, 0 = no damage, 100 = complete death
In short: as §1

[8] = test system: lambsquarters (Chenopodium album, CHEAL); assay: as above; settings: pre-emerge, rated 14 days after application, 0 = no damage, 100 = complete death
In short: as §1

[9] = test system: field corn (Zea mays L., var. Dekalb 535, CORN); assay: Post-emerge test, crop safety; settings: phytotoxicity rating 0-100 (0 no damage, 100 complete death), 14 days after application
In short: as §1

[10] = test system: upland rice (Oryza sp., var. Tebonnet, RICE); assay: Post-emerge test, crop safety; settings: phytotoxicity rating 0-100 (0 no damage, 100 complete death), 14 days after application
In short: as §1

[11] = test system: green foxtail (Setaria viridis, SETVI); assay: Post-emerge test, greenhouse herbicide activity screening; settings: phytotoxicity rating 0-100 (0 no damage, 100 complete death), 14 days after application
In short: (§2)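 Each test used a mechanized track sprayer delivering 187 l/ha of acetone solution at 15–1000 g ai/ha. Post-emerge foliage at 2–3 leaves was treated with added 0.25% v/v non-ionic surfactant and bottom-watered only. Injury was assessed on day 14, where 100 means total kill.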

[12] = test system: barnyardgrass (Echinochloa crus-galli, ECHCG); assay: as above; settings: phytotoxicity rating 0-100 (0 no damage, 100 complete death), 14 days after application
In short: as §2

[13] = test system: velvetleaf (Abutilon theophrasti, ABUTH); assay: as above; settings: phytotoxicity rating 0-100 (0 no damage, 100 complete death), 14 days after application
In short: as §2

[14] = test system: sicklepod (Cassia obtusifolia, CASOB); assay: as above; settings: phytotoxicity rating 0-100 (0 no damage, 100 complete death), 14 days after application
In short: as §2

[15] = test system: large crabgrass (Digitaria sanguinalis, DIGSA); assay: as above; settings: phytotoxicity rating 0-100 (0 no damage, 100 complete death), 14 days after application
In short: as §2

[16] = test system: johnsongrass (Sorghum halepense, SORHA); assay: as above; settings: phytotoxicity rating 0-100 (0 no damage, 100 complete death), 14 days after application
In short: as §2

[17] = test system: ivyleaf morningglory (Ipomoea hederacea, IPOHE); assay: as above; settings: phytotoxicity rating 0-100 (0 no damage, 100 complete death), 14 days after application
In short: as §2

[18] = test system: redroot pigweed (Amaranthus retroflexus, AMARE); assay: as above; settings: phytotoxicity rating 0-100 (0 no damage, 100 complete death), 14 days after application
In short: as §2

[19] = test system: lambsquarters (Chenopodium album, CHEAL); assay: as above; settings: phytotoxicity rating 0-100 (0 no damage, 100 complete death), 14 days after application
In short: as §2

[20] = test system: field corn (Zea mays L., var. Dekalb 535, CORN); assay: Pre-emerge test, crop safety; settings: pre-emerge, rated 14 days after application, 0 = no damage, 100 = complete death
In short: (§3)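 Sandy loam pots; pre-emerge: sown 1 d pre-spray, surface-watered after, then bottom-watered. Post-emerge: sown 8–21 d before, 2–3 leaf stage, + 0.25% v/v NIS, bottom-watered. Acetone, 187 l/ha track spray, 15–1000 g ai/ha. 0–100 injury score, day 14.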

[21] = test system: upland rice (Oryza sp., var. Tebonnet, RICE); assay: Pre-emerge test, crop safety; settings: pre-emerge, rated 14 days after application, 0 = no damage, 100 = complete death
In short: as §3

[22] = test system: redroot pigweed (Amaranthus retroflexus, AMARE); assay: Pre-emerge test, greenhouse herbicide activity screening; settings: pre-emerge, rated 14 days after application, 0 = no damage, 100 = complete death
In short: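 Herbicidal damage is scored 0 (none) to 100 (complete plant death) two weeks after a simulated field spray. Rates span 15–1000 g ai/ha, delivered in acetone at 187 l/ha. For post-emergence treatments, plants have 2–3 leaves and the spray carries 0.25% v/v non-ionic surfactant.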

Structure (SMILES): CCOC(=O)COc1c(Cl)cc(F)c(-n2c(=O)cc(C(F)(F)F)n(C)c2=O)c1N [Compound 1-59]
- Pre-emerge Herbicidal Activity SETVI (phytotoxicity rating, scale 0-100) ([1]; 63 g ai/ha): 30
- Pre-emerge Herbicidal Activity SETVI (phytotoxicity rating, scale 0-100) ([1]; 250 g ai/ha): 90
- Pre-emerge Herbicidal Activity ECHCG (phytotoxicity rating, scale 0-100) ([2]; 63 g ai/ha): 0
- Pre-emerge Herbicidal Activity ECHCG (phytotoxicity rating, scale 0-100) ([2]; 250 g ai/ha): 70
- Pre-emerge Herbicidal Activity ABUTH (phytotoxicity rating, scale 0-100) ([3]; 63 g ai/ha): 100
- Pre-emerge Herbicidal Activity ABUTH (phytotoxicity rating, scale 0-100) ([3]; 250 g ai/ha): 100
- Pre-emerge Herbicidal Activity CASOB (phytotoxicity rating, scale 0-100) ([4]; 63 g ai/ha): 30
- Pre-emerge Herbicidal Activity CASOB (phytotoxicity rating, scale 0-100) ([4]; 250 g ai/ha): 80
- Pre-emerge Herbicidal Activity DIGSA (phytotoxicity rating, scale 0-100) ([5]; 63 g ai/ha): 30
- Pre-emerge Herbicidal Activity DIGSA (phytotoxicity rating, scale 0-100) ([5]; 250 g ai/ha): 90
- Pre-emerge Herbicidal Activity SORHA (phytotoxicity rating, scale 0-100) ([6]; 63 g ai/ha): 30
- Pre-emerge Herbicidal Activity SORHA (phytotoxicity rating, scale 0-100) ([6]; 250 g ai/ha): 85
- Pre-emerge Herbicidal Activity IPOHE (phytotoxicity rating, scale 0-100) ([7]; 63 g ai/ha): 100
- Pre-emerge Herbicidal Activity IPOHE (phytotoxicity rating, scale 0-100) ([7]; 250 g ai/ha): 100
- Pre-emerge Herbicidal Activity CHEAL (phytotoxicity rating, scale 0-100) ([8]; 63 g ai/ha): 100
- Pre-emerge Herbicidal Activity CHEAL (phytotoxicity rating, scale 0-100) ([8]; 250 g ai/ha): 100
- Post-emerge Herbicidal Activity CORN (crop damage) ([9]; 63 g ai/ha): 45
- Post-emerge Herbicidal Activity CORN (crop damage) ([9]; 250 g ai/ha): 80
- Post-emerge Herbicidal Activity RICE (crop damage) ([10]; 63 g ai/ha): 30
- Post-emerge Herbicidal Activity RICE (crop damage) ([10]; 250 g ai/ha): 60
- Post-emerge Herbicidal Activity SETVI ([11]; 63 g ai/ha): 10
- Post-emerge Herbicidal Activity SETVI ([11]; 250 g ai/ha): 70
- Post-emerge Herbicidal Activity ECHCG ([12]; 63 g ai/ha): 30
- Post-emerge Herbicidal Activity ECHCG ([12]; 250 g ai/ha): 80
- Post-emerge Herbicidal Activity ABUTH ([13]; 63 g ai/ha): 100
- Post-emerge Herbicidal Activity ABUTH ([13]; 250 g ai/ha): 100
- Post-emerge Herbicidal Activity CASOB ([14]; 63 g ai/ha): 40
- Post-emerge Herbicidal Activity CASOB ([14]; 250 g ai/ha): 100
- Post-emerge Herbicidal Activity DIGSA ([15]; 63 g ai/ha): 0
- Post-emerge Herbicidal Activity DIGSA ([15]; 250 g ai/ha): 40
- Post-emerge Herbicidal Activity SORHA ([16]; 63 g ai/ha): 10
- Post-emerge Herbicidal Activity SORHA ([16]; 250 g ai/ha): 50
- Post-emerge Herbicidal Activity IPOHE ([17]; 63 g ai/ha): 100
- Post-emerge Herbicidal Activity IPOHE ([17]; 250 g ai/ha): 100
- Post-emerge Herbicidal Activity AMARE ([18]; 63 g ai/ha): 95
- Post-emerge Herbicidal Activity AMARE ([18]; 250 g ai/ha): 100
- Post-emerge Herbicidal Activity CHEAL ([19]; 63 g ai/ha): 100
- Post-emerge Herbicidal Activity CHEAL ([19]; 250 g ai/ha): 100
- Pre-emerge crop damage CORN (phytotoxicity rating, scale 0-100) ([20]; 63 g ai/ha): 30
- Pre-emerge crop damage CORN (phytotoxicity rating, scale 0-100) ([20]; 250 g ai/ha): 90
- Pre-emerge crop damage RICE (phytotoxicity rating, scale 0-100) ([21]; 63 g ai/ha): 30
- Pre-emerge crop damage RICE (phytotoxicity rating, scale 0-100) ([21]; 250 g ai/ha): 70
- Pre-emerge Herbicidal Activity AMARE (phytotoxicity rating, scale 0-100) ([22]; 63 g ai/ha): 100
- Pre-emerge Herbicidal Activity AMARE (phytotoxicity rating, scale 0-100) ([22]; 250 g ai/ha): 100
